Laboratory results: ChEMBL document CHEMBL1131286, “Design and synthesis of m1-selective muscarinic agonists: (R)-(-)-(Z)-1-Azabicyclo[2.2.1]heptan-3-one, O-(3-(3'-methoxyphenyl)-2-propynyl)oxime maleate (CI-1017), a functionally m1-selective muscarinic agonist” (J Med Chem, 1998)
Active and inactive are the calls of the source. The rule behind the calls is not given here.

Columns and labels:
[1] = biological target: T1, Muscarinic acetylcholine receptor M1 (Homo sapiens, UniProt P11229); assay: biochemical; assay type: cell-based, CHO
T1 sequence (P11229 whole entry): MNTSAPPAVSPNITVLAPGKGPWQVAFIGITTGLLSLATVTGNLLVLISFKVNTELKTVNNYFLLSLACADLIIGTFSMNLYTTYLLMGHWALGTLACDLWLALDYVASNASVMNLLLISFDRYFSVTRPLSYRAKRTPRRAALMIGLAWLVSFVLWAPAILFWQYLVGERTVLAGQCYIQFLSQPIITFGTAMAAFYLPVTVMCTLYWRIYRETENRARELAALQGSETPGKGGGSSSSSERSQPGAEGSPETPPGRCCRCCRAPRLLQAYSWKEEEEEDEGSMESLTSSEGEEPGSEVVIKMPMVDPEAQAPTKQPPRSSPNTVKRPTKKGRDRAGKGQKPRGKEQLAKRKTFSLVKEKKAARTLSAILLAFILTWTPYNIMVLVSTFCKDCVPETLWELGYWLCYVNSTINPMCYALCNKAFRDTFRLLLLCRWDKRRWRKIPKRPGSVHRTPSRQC
Description: Binding affinity of [3H]-QNB to CHO cells expressing human Muscarinic acetylcholine receptor M1

[2] = biological target: Muscarinic acetylcholine receptor M3 (Homo sapiens) (UniProt P20309); assay: Inositol phosphate(PI) accumulation in CHO cells expressing Muscarinic acetylcholine receptor M3 as maximal response at 100 uM relative to carbachol; assay type: functional, cell-based
[3] = biological target: T2, Muscarinic acetylcholine receptor M5 (Homo sapiens) (UniProt P08912); assay: Inositol phosphate(PI) accumulation in CHO cells expressing Muscarinic acetylcholine receptor M5 as maximal response at 100 uM relative to carbachol; assay type: functional, cell-based
T2 sequence (whole entry): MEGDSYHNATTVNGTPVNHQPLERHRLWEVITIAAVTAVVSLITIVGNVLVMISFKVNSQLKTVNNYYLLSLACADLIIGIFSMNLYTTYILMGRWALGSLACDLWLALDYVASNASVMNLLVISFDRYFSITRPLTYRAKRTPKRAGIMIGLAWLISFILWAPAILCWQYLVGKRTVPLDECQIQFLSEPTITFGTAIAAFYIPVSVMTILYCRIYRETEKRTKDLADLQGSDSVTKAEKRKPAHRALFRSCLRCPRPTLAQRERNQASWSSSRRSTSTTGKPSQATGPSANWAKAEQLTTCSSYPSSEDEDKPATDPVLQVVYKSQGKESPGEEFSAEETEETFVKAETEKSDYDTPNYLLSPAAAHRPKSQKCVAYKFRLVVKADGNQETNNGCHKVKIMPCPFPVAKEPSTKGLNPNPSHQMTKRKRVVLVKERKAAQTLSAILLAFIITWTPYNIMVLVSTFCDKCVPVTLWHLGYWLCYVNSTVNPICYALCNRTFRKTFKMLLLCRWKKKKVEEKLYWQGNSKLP

[4] = biological target: T3, Muscarinic acetylcholine receptor M2 (Homo sapiens, UniProt P08172); assay: Binding affinity of [3H]QNB to CHO cells expressing human Muscarinic acetylcholine receptor M2; assay type: cell-based
T3 sequence (P08172 whole entry): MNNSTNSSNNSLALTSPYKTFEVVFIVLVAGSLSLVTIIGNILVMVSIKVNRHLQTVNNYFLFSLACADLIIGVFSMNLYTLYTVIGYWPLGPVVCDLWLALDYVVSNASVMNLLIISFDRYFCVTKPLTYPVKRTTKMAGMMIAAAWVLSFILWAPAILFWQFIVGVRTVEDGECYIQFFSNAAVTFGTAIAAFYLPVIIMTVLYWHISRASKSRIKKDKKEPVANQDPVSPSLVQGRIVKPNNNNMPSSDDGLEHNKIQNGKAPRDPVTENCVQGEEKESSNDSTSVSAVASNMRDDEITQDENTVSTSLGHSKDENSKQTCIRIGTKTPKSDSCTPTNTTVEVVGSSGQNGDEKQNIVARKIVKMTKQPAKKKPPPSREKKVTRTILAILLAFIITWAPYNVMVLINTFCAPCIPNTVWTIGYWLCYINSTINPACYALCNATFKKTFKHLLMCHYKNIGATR

[5] = biological target: T4, Muscarinic acetylcholine receptor M1 (Homo sapiens) (UniProt P11229); assay: Stimulation of inositol phosphate(PI) accumulation in CHO cells expressing Muscarinic acetylcholine receptor M1 as maximal response at 100 uM relative to carbachol; assay type: functional, cell-based
T4 sequence (whole entry): T1 sequence (P11229 whole entry)

[6] = biological target: Muscarinic acetylcholine receptor (Rattus norvegicus) (UniProt P08482+P08483+P08485+P08911+P10980); assay: Ratio of QNB binding to CMD binding was evaluated; assay type: protein assay
[7] = biological target: Muscarinic acetylcholine receptor; assay: Muscarinic acetylcholine receptor binding assay was conducted using [3H]cis-methyldioxolane (CMD) to label agonist sites in membrane preparations from rat neocortex
[8] = biological target: Muscarinic acetylcholine receptor; assay: Muscarinic acetylcholine receptor binding assay was conducted using [3H]quinuclidinyl benzilate (QNB) to label antagonist sites in membrane preparations from rat neocortex
[9] = biological target: T5, Muscarinic acetylcholine receptor M4 (Homo sapiens) (UniProt P08173); assay: Maximal response obtained for each drug normalized to effect of carbachol in Muscarinic acetylcholine receptor M4; assay type: functional
T5 sequence (whole entry): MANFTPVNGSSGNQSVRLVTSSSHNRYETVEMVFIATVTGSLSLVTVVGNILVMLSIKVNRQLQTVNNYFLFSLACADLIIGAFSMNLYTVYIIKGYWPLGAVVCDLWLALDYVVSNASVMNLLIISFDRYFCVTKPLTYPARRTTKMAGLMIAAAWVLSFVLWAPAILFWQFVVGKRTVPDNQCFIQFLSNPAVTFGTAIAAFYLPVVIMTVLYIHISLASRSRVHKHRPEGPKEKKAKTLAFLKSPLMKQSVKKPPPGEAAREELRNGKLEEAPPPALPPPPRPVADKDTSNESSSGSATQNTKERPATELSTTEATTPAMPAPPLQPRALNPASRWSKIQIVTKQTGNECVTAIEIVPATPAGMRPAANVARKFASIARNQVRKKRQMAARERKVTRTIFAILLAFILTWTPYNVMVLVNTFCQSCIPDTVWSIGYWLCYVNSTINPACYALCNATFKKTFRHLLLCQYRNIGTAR

[10] = biological target: Muscarinic acetylcholine receptor M3 (Homo sapiens) (UniProt P20309); assay: Maximal response obtained for each drug normalized to effect of carbachol in Muscarinic acetylcholine receptor M3; assay type: functional
[11] = biological target: T6, Muscarinic acetylcholine receptor M2 (Homo sapiens) (UniProt P08172); assay: Amplification of transfected NIH3T3 cells was measured in Muscarinic acetylcholine receptor M2 required to produce half maximal effect; assay type: functional, cell-based
T6 sequence (whole entry): T3 sequence (P08172 whole entry)

[12] = biological target: Muscarinic acetylcholine receptor M3 (Homo sapiens) (UniProt P20309); assay: Stimulations of inositol phosphate(PI) accumulation in transfected CHO cells in Muscarinic acetylcholine receptor M3 values are the maximal response obtained from the compound tested at 100 uM normalized to the effect of carbachol.; assay type: functional, cell-based
[13] = biological target: T2, Muscarinic acetylcholine receptor M5 (Homo sapiens); assay: Maximal response obtained for each drug normalized to effect of carbachol in Muscarinic acetylcholine receptor M5; assay type: functional
[14] = biological target: T2, Muscarinic acetylcholine receptor M5 (Homo sapiens); assay: Amplification of transfected NIH3T3 cells was measured in Muscarinic acetylcholine receptor M5 required to produce half maximal effect; assay type: functional, cell-based
[15] = biological target: T2, Muscarinic acetylcholine receptor M5 (Homo sapiens); assay: Stimulations of inositol phosphate(PI) accumulation in transfected CHO cells in Muscarinic acetylcholine receptor M5 values are the maximal response obtained from the compound tested at 100 uM normalized to the effect of carbachol.; assay type: functional, cell-based
[16] = biological target: T6, Muscarinic acetylcholine receptor M2 (Homo sapiens); assay: Maximal response obtained for each drug normalized to effect of carbachol in Muscarinic acetylcholine receptor M2; assay type: functional
[17] = biological target: T6, Muscarinic acetylcholine receptor M2 (Homo sapiens); assay: Reversal of forskolin-stimulated accumulation of […] in transfected CHO cells, against Muscarinic acetylcholine receptor M2; Not active up to 1 mM; assay type: functional, cell-based
[18] = biological target: T5, Muscarinic acetylcholine receptor M4 (Homo sapiens); assay: Amplification of transfected NIH3T3 cells was measured in Muscarinic acetylcholine receptor M4 required to produce half maximal effect; assay type: functional, cell-based
[19] = biological target: T5, Muscarinic acetylcholine receptor M4 (Homo sapiens); assay: Reversal of forskolin-stimulated accumulation of […] in transfected CHO cells, against Muscarinic acetylcholine receptor M4; assay type: functional, cell-based; details: concentration not given here
[20] = biological target: T4, Muscarinic acetylcholine receptor M1 (Homo sapiens); assay: Maximal response obtained for each drug normalized to effect of carbachol in Muscarinic acetylcholine receptor M1; assay type: functional
[21] = biological target: T4, Muscarinic acetylcholine receptor M1 (Homo sapiens); details: NIH3T3
[22] = biological target: T4, Muscarinic acetylcholine receptor M1 (Homo sapiens); details: CHO
[23] = biological target: Muscarinic acetylcholine receptor M3 (Homo sapiens) (UniProt P20309); details: NIH3T3
Description: Amplification of transfected NIH3T3 cells was measured in Muscarinic acetylcholine receptor M3 required to produce half maximal effect

[24] = biological target: T2, Muscarinic acetylcholine receptor M5 (Homo sapiens); details: CHO; 100 uM
[25] = biological target: T5, Muscarinic acetylcholine receptor M4 (Homo sapiens); details: NIH3T3
[26] = biological target: T6, Muscarinic acetylcholine receptor M2 (Homo sapiens); details: CHO
Description: Binding affinity expressed in IC50 labelled by [3H]QNB in CHO cells expressing human Muscarinic acetylcholine receptor M2

[27] = biological target: T2, Muscarinic acetylcholine receptor M5 (Homo sapiens); assay: Stimulations of inositol phosphate(PI) ccumulation in transfected CHO cells in Muscarinic acetylcholine receptor M5 values are the maximal response obtained from the compound tested at 100 uM normalized to the effect of carbachol.; assay type: functional, cell-based

Sequence of Muscarinic acetylcholine receptor M3 (Homo sapiens) (P20309 whole entry, looked up): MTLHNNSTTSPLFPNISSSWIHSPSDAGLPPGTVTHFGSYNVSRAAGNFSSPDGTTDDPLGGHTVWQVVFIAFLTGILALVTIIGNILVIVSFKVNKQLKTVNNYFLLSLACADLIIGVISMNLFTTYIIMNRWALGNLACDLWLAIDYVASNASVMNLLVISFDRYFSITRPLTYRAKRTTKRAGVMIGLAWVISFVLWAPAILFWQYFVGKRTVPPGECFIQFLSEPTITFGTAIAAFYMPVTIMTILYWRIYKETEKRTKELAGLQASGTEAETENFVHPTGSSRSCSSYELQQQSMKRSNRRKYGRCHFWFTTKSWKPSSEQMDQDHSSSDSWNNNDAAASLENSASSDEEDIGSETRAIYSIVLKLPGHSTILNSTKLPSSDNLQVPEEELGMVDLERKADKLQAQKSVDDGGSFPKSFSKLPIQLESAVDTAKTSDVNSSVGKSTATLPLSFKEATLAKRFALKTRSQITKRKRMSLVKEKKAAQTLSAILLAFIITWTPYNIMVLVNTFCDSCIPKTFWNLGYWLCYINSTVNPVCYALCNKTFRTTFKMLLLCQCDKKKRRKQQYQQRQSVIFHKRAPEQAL

SMILES	IC50 [1]	CCh [3]	IC50 [4]	CCh [5]	Ratio [6]	IC50 [7]	IC50 [8]	further results
CO/N=C1\CN2CCC1C2 (centres undefined)	26.9 µM		16.8 µM		1340	0.0181 µM	24.2 µM	
C#C/C=C/CO/N=C1\CN2CCC1C2 (centres undefined)	0.216 µM		0.519 µM		398	0.0347 µM	13.8 µM	
COc1cccc(C#CCO/N=C2\CN3CC[C@@H]2C3)c1								CCh [9]: 72%; CCh [10]: 87%; ED50 [11]: 1.28 µM; Stimulation [12]: 10.4%; CCh [13]: 104%; ED50 [14]: 0.868 µM; Stimulation [15]: 12.3%; CCh [16]: 92%; ED50 [17]: inactive; ED50 [18]: 0.051 µM; inhibition [19]: 1.6%; CCh [20]: 41%; ED50 [21]: 0.042 µM; ED50 [22]: 1 µM; ED50 [23]: 0.865 µM
C#C/C(C)=C\CO/N=C1\CN2CCC1C2 (centres undefined)	1.58 µM		1.9 µM		790	0.00102 µM	0.806 µM	
COc1cccc(C#CCO/N=C2\CN3CC[C@H]2C3)c1								CCh [9]: 65%; CCh [10]: 57%; ED50 [11]: 1.53 µM; Stimulation [12]: 5.2%; CCh [13]: 60%; ED50 [14]: 2.59 µM; Stimulation [15]: 1.9%; CCh [16]: 33%; CCh [20]: 51%; ED50 [21]: 1.6 µM; ED50 [22]: 3.7 µM; ED50 [23]: 4.57 µM
C#CCC#CCO/N=C1\CN2CCC1C2 (centres undefined)	8.83 µM		8.07 µM		402	0.022 µM	8.834 µM	
C#C/C(C)=C/CO/N=C1\CN2CCC1C2 (centres undefined)	2.59 µM		6.01 µM		480	0.00429 µM	2.06 µM	
C=CCO/N=C1\CN2CCC1C2 (centres undefined)	4.05 µM		10.8 µM		91.7	0.052 µM	4.77 µM	
C#CCC#CCC#CCO/N=C1\CN2CCC1C2 (centres undefined)					119	0.00804 µM	0.958 µM	
C(#Cc1cccs1)CO/N=C1\CN2CCC1C2 (centres undefined)	1.62 µM		8.9 µM	86%	173	0.0135 µM	2.33 µM	
C[N+](C)(C)CCOC(N)=O								ED50 [14]: 1.4 µM; Stimulation [15]: 100%; inhibition [19]: 6.3%; ED50 [24]: 2.7 µM; ED50 [25]: 0.1 µM; ED50 [26]: 0.27 µM
C#CCO/N=C1\CN2CCC1C2 (centres undefined)	4.89 µM	42%	6.03 µM	95%	1240	0.0035 µM	4.35 µM	
C(#Cc1ccsc1)CO/N=C1\CN2CCC1C2 (centres undefined)	4.84 µM	13%	15.2 µM	54%	163	0.0165 µM	2.69 µM	CCh [2]: 19%

More lines, main results first:

IC50 [1]	CCh [3]	IC50 [4]	CCh [5]	SMILES	Ratio [6]	IC50 [7]	IC50 [8]	further results
1.12 µM	4%	4.01 µM	32%	Clc1ccccc1C#CCO/N=C1\CN2CCC1C2 (centres undefined)	107			CCh [2]: 6%
1.09 µM		7.93 µM		C/C(C#Cc1ccccc1)=C\CO/N=C1\CN2CCC1C2 (centres undefined)	7.93			
5.46 µM	13%	27.2 µM	57%	Fc1ccc(C#CCO/N=C2\CN3CCC2C3)cc1 (centres undefined)	204			CCh [2]: 10%
15.1 µM		46.6 µM		O=[N+]([O-])c1cccc(C#CCO/N=C2\CN3CCC2C3)c1 (centres undefined)	227			
4.03 µM	6%	20.8 µM	45%	Fc1ccccc1C#CCO/N=C1\CN2CCC1C2 (centres undefined)	160			CCh [2]: 2%
10.6 µM		84.4 µM	89%	COc1ccc(C#CCO/N=C2\CN3CCC2C3)cc1 (centres undefined)	119			CCh [2]: 2%; CCh [27]: 3%
14.1 µM		38.6 µM		Cc1ccc(C#CCO/N=C2\CN3CCC2C3)cc1 (centres undefined)	124			
9.85 µM	9%	47.9 µM	54%	Fc1cccc(C#CCO/N=C2\CN3CCC2C3)c1 (centres undefined)	132			CCh [2]: 12%
4.01 µM	0%	24.7 µM	48%	Clc1ccc(C#CCO/N=C2\CN3CCC2C3)cc1 (centres undefined)	119			
16.6 µM		69.3 µM		COc1ccccc1C#CCO/N=C1\CN2CCC1C2 (centres undefined)	80.7			
